Experimental data taken from patent publication US20080039629A1, “Benzothniazole compositions and their use as ubiquition ligation inhibitors” (RIGEL PHARMACEUTICALS, INC., priority 2003, published 2008).

Molecular target: T1, E1 and His-E2 Ubch10 (Homo sapiens, UniProt P22314)
T1 construct: host or cells: E. coli (His-Ubch10); Sf9 insect cells (E1)
T1 sequence (P22314 1-1058): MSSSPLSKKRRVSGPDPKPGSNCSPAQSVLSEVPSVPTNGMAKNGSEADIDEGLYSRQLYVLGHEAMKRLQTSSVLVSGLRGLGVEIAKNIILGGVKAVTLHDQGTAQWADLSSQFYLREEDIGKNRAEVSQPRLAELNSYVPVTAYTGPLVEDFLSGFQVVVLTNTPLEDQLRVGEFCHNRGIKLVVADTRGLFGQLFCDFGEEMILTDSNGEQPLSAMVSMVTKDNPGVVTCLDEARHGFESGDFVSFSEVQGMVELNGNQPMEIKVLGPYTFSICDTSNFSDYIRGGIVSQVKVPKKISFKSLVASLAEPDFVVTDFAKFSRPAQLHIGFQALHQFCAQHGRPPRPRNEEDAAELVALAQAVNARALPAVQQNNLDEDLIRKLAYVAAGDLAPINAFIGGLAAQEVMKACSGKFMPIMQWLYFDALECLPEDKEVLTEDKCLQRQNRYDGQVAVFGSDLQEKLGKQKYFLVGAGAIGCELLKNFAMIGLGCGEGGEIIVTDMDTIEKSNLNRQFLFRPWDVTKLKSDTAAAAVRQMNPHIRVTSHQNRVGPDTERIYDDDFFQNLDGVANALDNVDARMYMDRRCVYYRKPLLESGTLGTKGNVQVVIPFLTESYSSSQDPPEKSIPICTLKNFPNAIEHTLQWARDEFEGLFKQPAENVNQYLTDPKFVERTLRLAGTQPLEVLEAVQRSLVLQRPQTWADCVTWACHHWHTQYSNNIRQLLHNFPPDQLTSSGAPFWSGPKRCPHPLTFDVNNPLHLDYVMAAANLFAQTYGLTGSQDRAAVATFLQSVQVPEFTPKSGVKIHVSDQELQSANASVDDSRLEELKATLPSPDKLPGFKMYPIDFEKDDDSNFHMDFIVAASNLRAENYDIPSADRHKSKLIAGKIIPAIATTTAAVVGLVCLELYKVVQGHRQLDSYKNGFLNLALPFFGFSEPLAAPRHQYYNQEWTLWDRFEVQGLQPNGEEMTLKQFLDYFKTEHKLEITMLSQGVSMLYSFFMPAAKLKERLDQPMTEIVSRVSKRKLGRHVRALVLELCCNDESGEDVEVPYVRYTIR
Assay: E1 to E2 transfer assay, His-E2 Ubch10, 1.0 μM ATP (low ATP)
Type: biochemical
Conditions: Table 5, ATP inhibition properties; inhibition measured using IC50 values
Description: Biological assays for determining the transfer of ubiquitin from the E1 activating agent to the E2 conjugating agent are described in U.S. patent application Ser. Nos. 09/542,497 and 09/826,312 as well as in the PCT Application WO 01/75145, all of which are incorporated by reference in their entirety. The following assay example illustrates one way by which the ubiquitin ligase inhibitory activity of the compounds of the invention can be assayed. This assay example is not meant to limit in any way the use of the compounds of the invention as ubiquitin ligase inhibitors.
The attachment of a ubiquitin moiety to the E2 conjugating agent was assayed using Flag-ubiquitin that was purified from E. coli, E2 Ubch10 that was purified as a His-Ubch10 from E. coli, and E1 that was purified from Sf9 insect cells (Affiniti Research Products, Exeter, U.K.). The wells of a Nickel-substrate 96-well plate (Pierce Chemical) were blocked with 100 μl of 1% casein/phosphate buffered saline (PBS) for 1 hour at room temperature. The blocked Nickel-substrate plate was then washed three times with 200 μl of PBST (0.1% Tween-20 in PBS). Subsequently, Flag-ubiquitin reaction solution was added to each well so that the final concentration was 62.5 mM Tris pH 7.5, […], 0.75 mM DTT, 1.0 μM ATP (low ATP), and 100 ng Flag-ubiquitin. The final reaction solution volume was fixed to 80 μl with Millipore-filtered water. To this was added the following: a ubiquitin agent inhibitor in 10 μl of DMSO, 10 μl of E1 and His-E2 Ubch10 in 20 mM Tris buffer, pH 7.5, and 5% glycerol so that there was 10 ng/well of E1 and 20 ng/well of His-E2 Ubch10. The reaction was then allowed to proceed at room temperature for 1 hour.
After 1 hour, the wells were washed three times with 200 μl of PBST and the amount of E2-ubiquitin complex was measured. For measuring the amount of the E2-ubiquitin complex, 100 μl of Mouse anti-flag diluted 1:10,000 (Sigma Aldrich Fluka Chemicals, St. Louis, Mo.) and anti-mouse HRP diluted 1:15,000 (Jackson Immunoresearch labs, West Grove, Pa.) in PBST were added to each well and allowed to incubate at room temperature for another hour. The wells were then washed three times with 200 μl of PBST and 100 μl of luminol substrate (⅕ dilution) was added. The luminescence of each well was then measured using a […] to calculate the amount of E2-ubiquitin complex. This procedure was repeated using His-E2 Ubch5C instead of His-E2 Ubch10.
The table below illustrates the inhibitory properties of the pharmaceutical compostions of the invention comprising the compounds listed in the table using the assays described above. Inhibition was measured using IC50 values.

Row | Compound | UBC10
1 | COc1ccc2nc(NC(=O)c3ccc4c(c3)OCCO4)sc2c1 [Compound 29, N-(6-methoxybenzo[d]thiazol-2-yl)-2,3-dihydrobenzo[b][1,4]dioxine-6-carboxamide] | ++ (++ indicates inhibition at 50 μM or or less)
2 | COc1ccc2nc(NC(=O)c3ccc(C)cc3)sc2n1 [Compound 152, N-(5-methoxythiazolo[5,4-b]pyridin-2-yl)-4-methylbenzamide] | ++ (++ indicates inhibition at 50 μM or or less)
3 | CCOc1ccc2nc(NC(=O)c3ccc(C)cc3)sc2c1 [Compound 92, N-(6-ethoxybenzo[d]thiazol-2-yl)-4-methylbenzamide] | −− (−− indicates marginal or no inhibition detected with this assay)
4 | Cc1ccc(C(=O)Nc2nc3c(C)cccc3s2)cc1C [Compound 76, 3,4-dimethyl-N-(4-methylbenzo[d]thiazol-2-yl)benzamide] | −− (−− indicates marginal or no inhibition detected with this assay)
5 | COc1ccc2nc(NC(=O)c3ccc(S(=O)(=O)N4CCCC4)cc3)sc2c1 [Compound 34, N-(6-methoxybenzo[d]thiazol-2-yl)-4-(pyrrolidin-1-ylsulfonyl)benzamide] | ++ (++ indicates inhibition at 50 μM or or less)
6 | C=C(C)C(=O)Nc1ccc(C(=O)Nc2nc3ccc(OC)cc3s2)cc1 [Compound 15, 4-methacrylamido-N-(6-methoxybenzo[d]thiazol-2-yl)benzamide] | ++ (++ indicates inhibition at 50 μM or or less)
7 | COc1ccc2nc(NC(=O)c3cccnc3)sc2c1 [Compound 53, N-(6-methoxybenzo[d]thiazol-2-yl)nicotinamide] | ++ (++ indicates inhibition at 50 μM or or less)
8 | COc1ccc2nc(NC(=O)c3ccco3)sc2c1 [Compound 87, N-(6-methoxybenzo[d]thiazol-2-yl)furan-2-carboxamide] | ++ (++ indicates inhibition at 50 μM or or less)
9 | COc1cccc(C(=O)Nc2nc3ccccc3s2)c1 [Compound 189, N-(benzo[d]thiazol-2-yl)-3-methoxybenzamide] | −− (−− indicates marginal or no inhibition detected with this assay)
10 | COc1ccc2nc(NC(=O)Nc3ccccc3)sc2c1 [Compound 98, 1-(6-methoxybenzo[d]thiazol-2-yl)-3-phenylurea] | −− (−− indicates marginal or no inhibition detected with this assay)
11 | COC(=O)c1ccc(C(=O)Nc2nc3ccc(N)cc3s2)cc1 [Compound 74, methyl 4-((6-aminobenzo[d]thiazol-2-yl)carbamoyl)benzoate] | −− (−− indicates marginal or no inhibition detected with this assay)
12 | COc1ccc(C(=O)Nc2nc3ccc(OC)nc3s2)cc1 [Compound 151, 4-methoxy-N-(5-methoxythiazolo[5,4-b]pyridin-2-yl)benzamide] | ++ (++ indicates inhibition at 50 μM or or less)
13 | COc1ccc2nc(NC(=O)c3cccc(F)c3)sc2c1 [Compound 58, 3-fluoro-N-(6-methoxybenzo[d]thiazol-2-yl)benzamide] | ++ (++ indicates inhibition at 50 μM or or less)
14 | COc1ccc2nc(NC(C)=O)sc2c1 [Compound 41, N-(6-methoxybenzo[d]thiazol-2-yl)acetamide] | ++ (++ indicates inhibition at 50 μM or or less)
15 | COc1ccc2nc(NC(=O)c3cccc(Cl)c3)sc2n1 [Compound 142, 3-chloro-N-(5-methoxythiazolo[5,4-b]pyridin-2-yl)benzamide] | ++ (++ indicates inhibition at 50 μM or or less)
16 | CCCc1ccc(C(=O)Nc2nc3ccc(OC)cc3s2)cc1 [Compound 81, N-(6-methoxybenzo[d]thiazol-2-yl)-4-propylbenzamide] | ++ (++ indicates inhibition at 50 μM or or less)
17 | COc1ccc2nc(NC(=O)c3ccc(Cl)cc3)sc2n1 [Compound 155, 4-chloro-N-(5-methoxythiazolo[5,4-b]pyridin-2-yl)benzamide] | ++ (++ indicates inhibition at 50 μM or or less)
18 | Cc1ccc(C(=O)Nc2nc3ccccc3s2)cc1 [Compound 84, N-(benzo[d]thiazol-2-yl)-4-methylbenzamide] | ++ (++ indicates inhibition at 50 μM or or less)
19 | COc1cccc(C(=O)Nc2nc3ccc(OC)cc3s2)c1 [Compound 60, 3-methoxy-N-(6-methoxybenzo[d]thiazol-2-yl)benzamide] | ++ (++ indicates inhibition at 50 μM or or less)
20 | COc1ccc2nc(NC(=O)C(C)C)sc2c1 [Compound 47, N-(6-methoxybenzo[d]thiazol-2-yl)isobutyramide] | −− (−− indicates marginal or no inhibition detected with this assay)
21 | O=C(Nc1nc2ccccc2s1)c1ccccc1[N+](=O)[O-] [Compound 169, N-(benzo[d]thiazol-2-yl)-2-nitrobenzamide] | −− (−− indicates marginal or no inhibition detected with this assay)
22 | COc1ccc2nc(NC(=O)c3ccc(Cl)cc3Cl)sc2n1 [Compound 140, 2,4-dichloro-N-(5-methoxythiazolo[5,4-b]pyridin-2-yl)benzamide] | −− (−− indicates marginal or no inhibition detected with this assay)
23 | COc1ccc2nc(NC(=O)c3ccc(C(C)=O)cc3)sc2c1 [Compound 28, 4-acetyl-N-(6-methoxybenzo[d]thiazol-2-yl)benzamide] | ++ (++ indicates inhibition at 50 μM or or less)
24 | CCc1ccc(C(=O)Nc2nc3ccccc3s2)cc1 [Compound 85, N-(benzo[d]thiazol-2-yl)-4-ethylbenzamide] | ++ (++ indicates inhibition at 50 μM or or less)
25 | CCOc1ccc2nc(NC(=O)c3ccc(CC)cc3)sc2c1 [Compound 91, N-(6-ethoxybenzo[d]thiazol-2-yl)-4-ethylbenzamide] | −− (−− indicates marginal or no inhibition detected with this assay)
26 | COc1ccc2nc(NC(=O)NC34CC5CC(CC(C5)C3)C4)sc2c1 [Compound 97, N-1-adamantyl-N′-(6-methoxy-1,3-benzothiazol-2-yl)urea] | ++ (++ indicates inhibition at 50 μM or or less)
27 | COc1ccc2nc(NC(=O)c3ccc4ccccc4c3)sc2c1 [Compound 25, N-(6-methoxybenzo[d]thiazol-2-yl)-2-naphthamide] | −− (−− indicates marginal or no inhibition detected with this assay)
28 | COc1ccc2nc(NC(=O)c3c(F)cccc3F)sc2n1 [Compound 145, 2,6-difluoro-N-(5-methoxythiazolo[5,4-b]pyridin-2-yl)benzamide] | −− (−− indicates marginal or no inhibition detected with this assay)
29 | COc1ccc2nc(NC(=O)c3ccc(Cl)cc3)sc2c1 [Compound 30, 4-chloro-N-(6-methoxybenzo[d]thiazol-2-yl)benzamide] | ++ (++ indicates inhibition at 50 μM or or less)
